Source: patent publication US20050282743A1, “Molecular interactions in cells” (Arbor Vita Corporation, priority 2001, published 2005)
Ends that are not written are not given here. Peptide text beside a SMILES is read from it. * marks the point of attachment. Biotin = O=C1N[C@H]2[C@H](CS[C@H]2CCCCC(=O)*)N1

Experiments:
Test in all cases: G' assay (10 uM PL peptide), results of TABLE 7 and TABLE 12
Format in all cases: binding
[1] = target: T1, PDZ protein (GST-PDZ fusion) (Homo sapiens, UniProt Q15700)
T1 construct: made in house; host or cells: E. coli (DH5alpha, BL21 or JM109)
T1 sequence (Q15700 whole entry, the tested form may be a part): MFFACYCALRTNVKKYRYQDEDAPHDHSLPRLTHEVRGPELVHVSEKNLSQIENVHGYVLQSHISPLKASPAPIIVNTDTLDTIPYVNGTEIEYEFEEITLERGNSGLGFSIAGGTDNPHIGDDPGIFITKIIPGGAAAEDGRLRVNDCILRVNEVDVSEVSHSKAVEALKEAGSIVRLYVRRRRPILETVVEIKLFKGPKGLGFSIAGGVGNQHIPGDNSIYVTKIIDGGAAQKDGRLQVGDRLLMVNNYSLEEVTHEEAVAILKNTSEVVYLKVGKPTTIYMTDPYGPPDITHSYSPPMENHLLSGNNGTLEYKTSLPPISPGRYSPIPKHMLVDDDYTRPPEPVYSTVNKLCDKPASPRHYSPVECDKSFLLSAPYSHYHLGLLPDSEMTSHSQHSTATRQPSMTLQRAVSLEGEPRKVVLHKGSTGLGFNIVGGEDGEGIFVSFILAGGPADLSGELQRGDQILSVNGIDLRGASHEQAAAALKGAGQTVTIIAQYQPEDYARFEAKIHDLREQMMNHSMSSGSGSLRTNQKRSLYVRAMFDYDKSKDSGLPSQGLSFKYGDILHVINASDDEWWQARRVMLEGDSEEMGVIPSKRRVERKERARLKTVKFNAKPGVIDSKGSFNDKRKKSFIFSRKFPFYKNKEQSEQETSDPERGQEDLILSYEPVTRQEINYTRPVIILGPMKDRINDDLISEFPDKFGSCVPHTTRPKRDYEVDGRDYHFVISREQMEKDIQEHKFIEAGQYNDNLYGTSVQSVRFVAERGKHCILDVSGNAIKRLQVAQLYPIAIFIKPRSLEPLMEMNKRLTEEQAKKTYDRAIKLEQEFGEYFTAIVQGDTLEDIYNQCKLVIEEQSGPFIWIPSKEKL
Outline: (§1)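 Binding classes derive from A450 nm of bound biotin-tagged PL peptide. A score of 5 needs A450 above 4 in more than two repeats.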

[2] = target: T2, PDZ protein (GST-PDZ fusion) (Homo sapiens, UniProt P78352)
T2 construct: made in house; host or cells: E. coli (DH5alpha, BL21 or JM109)
T2 sequence (P78352 whole entry, the tested form may be a part): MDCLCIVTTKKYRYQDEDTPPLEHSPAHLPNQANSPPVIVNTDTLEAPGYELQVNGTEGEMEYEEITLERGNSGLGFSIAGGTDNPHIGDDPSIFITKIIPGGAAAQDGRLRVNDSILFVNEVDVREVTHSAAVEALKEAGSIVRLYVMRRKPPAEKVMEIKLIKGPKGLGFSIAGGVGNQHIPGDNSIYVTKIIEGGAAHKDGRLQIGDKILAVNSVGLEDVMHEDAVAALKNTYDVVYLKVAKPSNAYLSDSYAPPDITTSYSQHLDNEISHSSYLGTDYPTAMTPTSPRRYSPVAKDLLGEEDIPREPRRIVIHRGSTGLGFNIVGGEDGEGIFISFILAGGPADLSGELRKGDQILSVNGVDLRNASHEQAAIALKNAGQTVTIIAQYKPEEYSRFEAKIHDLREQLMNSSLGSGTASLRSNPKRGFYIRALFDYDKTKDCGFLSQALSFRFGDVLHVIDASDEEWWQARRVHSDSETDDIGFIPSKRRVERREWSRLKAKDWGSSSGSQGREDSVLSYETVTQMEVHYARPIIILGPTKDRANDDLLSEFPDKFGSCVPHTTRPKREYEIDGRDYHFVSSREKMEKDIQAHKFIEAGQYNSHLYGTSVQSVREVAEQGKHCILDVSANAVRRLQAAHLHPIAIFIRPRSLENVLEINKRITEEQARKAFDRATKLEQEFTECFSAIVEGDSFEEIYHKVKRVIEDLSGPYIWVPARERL
Outline: as §1

[3] = target: T3, PDZ protein (GST-PDZ fusion) (Homo sapiens, UniProt P57105); details: PDZ Outer Membrane, PDZ Domain 1
T3 construct: made in house; host or cells: E. coli (DH5alpha, BL21 or JM109)
T3 sequence (P57105 1-145): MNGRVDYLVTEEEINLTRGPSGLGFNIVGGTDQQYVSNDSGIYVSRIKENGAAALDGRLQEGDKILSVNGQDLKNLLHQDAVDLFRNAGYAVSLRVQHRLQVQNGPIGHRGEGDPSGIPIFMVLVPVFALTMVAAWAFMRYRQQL
Outline: as §1

[4] = target: T4, PDZ protein (GST-PDZ fusion) (Homo sapiens, UniProt Q86UL8)
T4 construct: made in house; host or cells: E. coli (DH5alpha, BL21 or JM109)
Outline: as §1

[5] = target: T5, PDZ protein (GST-PDZ fusion) (Homo sapiens, UniProt Q8NI35); details: PDZ INADL
T5 construct: made in house; host or cells: E. coli (DH5alpha, BL21 or JM109)
T5 sequence (Q8NI35 whole entry, the tested form may be a part): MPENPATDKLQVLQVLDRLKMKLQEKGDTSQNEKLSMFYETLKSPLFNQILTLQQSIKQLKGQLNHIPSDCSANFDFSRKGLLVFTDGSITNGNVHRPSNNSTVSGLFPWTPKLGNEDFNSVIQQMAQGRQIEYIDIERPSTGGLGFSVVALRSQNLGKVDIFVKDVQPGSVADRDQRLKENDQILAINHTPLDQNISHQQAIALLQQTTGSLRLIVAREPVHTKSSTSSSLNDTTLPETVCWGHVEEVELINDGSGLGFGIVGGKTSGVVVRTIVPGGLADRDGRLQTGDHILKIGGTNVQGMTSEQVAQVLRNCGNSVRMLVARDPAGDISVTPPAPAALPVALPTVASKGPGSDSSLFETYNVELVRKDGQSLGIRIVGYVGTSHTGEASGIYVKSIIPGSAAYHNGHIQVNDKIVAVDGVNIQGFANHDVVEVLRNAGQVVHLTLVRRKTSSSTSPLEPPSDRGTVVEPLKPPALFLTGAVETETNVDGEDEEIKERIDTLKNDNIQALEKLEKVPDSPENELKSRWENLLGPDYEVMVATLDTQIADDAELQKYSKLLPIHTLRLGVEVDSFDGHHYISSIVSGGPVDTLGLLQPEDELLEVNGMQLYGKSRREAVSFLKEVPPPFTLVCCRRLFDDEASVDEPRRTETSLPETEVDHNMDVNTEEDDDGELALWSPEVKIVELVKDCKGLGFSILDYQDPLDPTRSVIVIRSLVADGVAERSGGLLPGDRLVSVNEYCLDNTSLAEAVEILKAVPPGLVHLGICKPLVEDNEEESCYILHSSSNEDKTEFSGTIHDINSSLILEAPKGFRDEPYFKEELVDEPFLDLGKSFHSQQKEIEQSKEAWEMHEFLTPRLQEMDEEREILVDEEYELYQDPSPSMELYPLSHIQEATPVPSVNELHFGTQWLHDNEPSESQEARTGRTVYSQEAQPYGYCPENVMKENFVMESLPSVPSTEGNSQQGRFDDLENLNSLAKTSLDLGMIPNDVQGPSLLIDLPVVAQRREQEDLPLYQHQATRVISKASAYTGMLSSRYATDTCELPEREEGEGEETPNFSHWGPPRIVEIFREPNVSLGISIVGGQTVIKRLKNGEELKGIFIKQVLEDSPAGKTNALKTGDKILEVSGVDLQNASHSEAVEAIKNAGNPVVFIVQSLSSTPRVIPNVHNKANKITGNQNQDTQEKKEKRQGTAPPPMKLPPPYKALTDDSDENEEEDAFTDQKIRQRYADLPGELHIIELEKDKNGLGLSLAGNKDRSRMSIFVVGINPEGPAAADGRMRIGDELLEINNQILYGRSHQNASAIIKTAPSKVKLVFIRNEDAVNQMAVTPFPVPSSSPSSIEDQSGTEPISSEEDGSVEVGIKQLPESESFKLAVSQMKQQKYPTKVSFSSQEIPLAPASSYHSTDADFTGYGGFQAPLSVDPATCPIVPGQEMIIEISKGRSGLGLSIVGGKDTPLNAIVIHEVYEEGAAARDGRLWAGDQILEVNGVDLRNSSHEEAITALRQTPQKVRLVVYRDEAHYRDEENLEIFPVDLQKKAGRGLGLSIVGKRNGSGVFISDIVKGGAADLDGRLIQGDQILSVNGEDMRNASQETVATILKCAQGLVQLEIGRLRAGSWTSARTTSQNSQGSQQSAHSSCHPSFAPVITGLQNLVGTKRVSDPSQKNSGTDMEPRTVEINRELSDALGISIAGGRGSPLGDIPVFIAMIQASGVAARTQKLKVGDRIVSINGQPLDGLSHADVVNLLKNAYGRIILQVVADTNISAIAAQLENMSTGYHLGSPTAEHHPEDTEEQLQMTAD
Outline: as §1

[6] = target: T6, PDZ protein (GST-PDZ fusion) (Homo sapiens, UniProt Q9P202); details: PDZ KIAA1526, PDZ Domain 1
T6 construct: made in house; host or cells: E. coli (DH5alpha, BL21 or JM109)
T6 sequence (Q9P202 1-907): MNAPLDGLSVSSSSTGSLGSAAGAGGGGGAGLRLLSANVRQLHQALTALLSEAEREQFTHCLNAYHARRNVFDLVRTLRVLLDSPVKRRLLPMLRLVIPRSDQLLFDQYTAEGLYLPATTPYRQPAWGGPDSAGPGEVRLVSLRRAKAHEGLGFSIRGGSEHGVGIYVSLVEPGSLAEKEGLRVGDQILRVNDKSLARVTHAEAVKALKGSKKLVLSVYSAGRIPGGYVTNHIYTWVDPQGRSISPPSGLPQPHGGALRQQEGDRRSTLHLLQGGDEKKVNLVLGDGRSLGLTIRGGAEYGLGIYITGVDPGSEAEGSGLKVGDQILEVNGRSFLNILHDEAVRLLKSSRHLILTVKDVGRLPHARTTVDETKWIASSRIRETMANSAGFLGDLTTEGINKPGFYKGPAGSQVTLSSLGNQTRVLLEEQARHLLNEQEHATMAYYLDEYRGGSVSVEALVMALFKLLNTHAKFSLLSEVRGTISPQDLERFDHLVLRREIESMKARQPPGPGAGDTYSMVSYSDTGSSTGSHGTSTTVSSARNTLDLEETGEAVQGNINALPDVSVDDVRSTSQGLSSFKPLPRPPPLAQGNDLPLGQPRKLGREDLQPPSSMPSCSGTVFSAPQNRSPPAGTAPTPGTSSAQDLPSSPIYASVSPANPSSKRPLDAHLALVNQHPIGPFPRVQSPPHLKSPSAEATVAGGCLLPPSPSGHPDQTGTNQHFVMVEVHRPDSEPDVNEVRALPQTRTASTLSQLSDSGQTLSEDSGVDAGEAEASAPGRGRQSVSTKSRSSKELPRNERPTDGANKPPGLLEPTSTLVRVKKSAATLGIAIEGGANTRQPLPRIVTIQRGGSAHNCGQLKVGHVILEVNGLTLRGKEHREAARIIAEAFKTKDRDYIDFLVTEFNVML
Outline: as §1

[7] = target: T7, PDZ protein (GST-PDZ fusion) (Homo sapiens, UniProt O15018); details: PDZ AIPC, PDZ Domain 1
T7 construct: made in house; host or cells: E. coli (DH5alpha, BL21 or JM109)
Outline: as §1

[8] = target: T8, PDZ protein (GST-PDZ fusion) (Homo sapiens, UniProt Q14160)
T8 construct: made in house; host or cells: E. coli (DH5alpha, BL21 or JM109)
T8 sequence (Q14160 whole entry, the tested form may be a part): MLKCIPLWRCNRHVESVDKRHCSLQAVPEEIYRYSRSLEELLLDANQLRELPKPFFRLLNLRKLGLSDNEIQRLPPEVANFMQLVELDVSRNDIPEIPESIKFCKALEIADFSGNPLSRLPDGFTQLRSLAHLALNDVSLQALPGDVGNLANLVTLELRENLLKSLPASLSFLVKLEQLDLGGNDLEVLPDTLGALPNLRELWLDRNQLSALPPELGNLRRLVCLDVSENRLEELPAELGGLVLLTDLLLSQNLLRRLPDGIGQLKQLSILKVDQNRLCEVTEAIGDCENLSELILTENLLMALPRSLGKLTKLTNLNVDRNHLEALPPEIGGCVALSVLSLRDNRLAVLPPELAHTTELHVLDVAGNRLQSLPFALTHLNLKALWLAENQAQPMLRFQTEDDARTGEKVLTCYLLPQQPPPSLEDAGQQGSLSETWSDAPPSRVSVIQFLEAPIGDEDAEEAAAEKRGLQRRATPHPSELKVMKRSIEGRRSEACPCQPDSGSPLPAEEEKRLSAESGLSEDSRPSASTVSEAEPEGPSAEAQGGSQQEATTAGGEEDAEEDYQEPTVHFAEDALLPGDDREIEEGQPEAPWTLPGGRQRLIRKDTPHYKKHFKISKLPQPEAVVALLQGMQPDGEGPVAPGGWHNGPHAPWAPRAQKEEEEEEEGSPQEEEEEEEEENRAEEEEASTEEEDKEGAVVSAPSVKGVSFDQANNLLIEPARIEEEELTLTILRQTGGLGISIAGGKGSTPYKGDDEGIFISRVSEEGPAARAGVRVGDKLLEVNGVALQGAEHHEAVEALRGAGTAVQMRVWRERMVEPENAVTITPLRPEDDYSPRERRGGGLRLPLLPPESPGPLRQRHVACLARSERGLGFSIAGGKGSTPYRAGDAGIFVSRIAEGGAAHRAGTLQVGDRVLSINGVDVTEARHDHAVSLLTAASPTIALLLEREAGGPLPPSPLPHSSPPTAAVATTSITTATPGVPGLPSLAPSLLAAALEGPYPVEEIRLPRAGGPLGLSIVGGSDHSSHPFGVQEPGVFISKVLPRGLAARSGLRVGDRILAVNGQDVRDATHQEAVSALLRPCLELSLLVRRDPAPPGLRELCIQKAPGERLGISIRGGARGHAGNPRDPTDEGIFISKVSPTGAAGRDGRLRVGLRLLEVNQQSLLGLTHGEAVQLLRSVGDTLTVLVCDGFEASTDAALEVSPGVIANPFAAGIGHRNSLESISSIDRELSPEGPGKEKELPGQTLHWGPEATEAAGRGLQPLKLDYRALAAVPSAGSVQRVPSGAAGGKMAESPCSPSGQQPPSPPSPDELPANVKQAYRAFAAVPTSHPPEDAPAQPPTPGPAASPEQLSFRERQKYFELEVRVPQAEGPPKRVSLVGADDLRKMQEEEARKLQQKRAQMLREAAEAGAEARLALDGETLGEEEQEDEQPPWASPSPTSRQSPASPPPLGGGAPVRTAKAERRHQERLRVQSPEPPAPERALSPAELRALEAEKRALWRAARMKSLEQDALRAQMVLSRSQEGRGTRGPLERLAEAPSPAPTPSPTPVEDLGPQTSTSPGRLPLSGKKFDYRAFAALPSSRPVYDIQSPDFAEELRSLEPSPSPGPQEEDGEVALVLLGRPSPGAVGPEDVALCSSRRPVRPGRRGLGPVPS
Outline: as §1

[9] = target: T9, PDZ protein (GST-PDZ fusion) (Homo sapiens, UniProt O14907); details: PDZ TIP1, PDZ Domain 1
T9 construct: made in house; host or cells: E. coli (DH5alpha, BL21 or JM109)
T9 sequence (O14907 1-124): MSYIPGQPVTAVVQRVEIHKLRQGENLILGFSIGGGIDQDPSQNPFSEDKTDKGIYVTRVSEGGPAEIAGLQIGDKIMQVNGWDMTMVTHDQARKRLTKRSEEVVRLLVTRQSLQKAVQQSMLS
Outline: as §1

[10] = PDZ Atrophin-1 Inter. Prot., PDZ Domain 5
[11] = PDZ atrophin-1 interacting Protein (Atrophin-1 Inter. Prot.), PDZ Domain 1

Compound | Classification ([1]; PDZ DLG2, PDZ Domain 2) | Classification [3] | Classification ([5]; PDZ Domain 3) | Classification [6] | Classification [7] | Classification [4, 10] | Classification ([8]; PDZ KIAA0147, PDZ Domain 1) | other results
CC[C@H](C)[C@H](NC(=O)[C@H](CCC(=O)O)NC(=O)[C@H](CO)NC(=O)[C@H](CCC(=O)O)NC(=O)[C@H](CCCNC(=N)N)NC(=O)[C@H](CCCNC(=N)N)NC(=O)[C@H](CC(C)C)NC(=O)[C@@H]1CCCN1C(=O)[C@H](CCCNC(=N)N)NC(=O)[C@@H]1CCCN1C(=O)[C@H](CCC(=O)O)NC(=O)[C@H](CC(C)C)NC(=O)[C@@H]1CCCN1C(=O)[C@@H](NC(=O)[C@H](CO)NC(=O)[C@H](C)NC(=O)[C@H](CCC(N)=O)NC(=O)[C@H](CC(N)=O)NC(=O)[C@H](Cc1c[nH]cn1)NC(=O)[C@H](CC(C)C)NC(=O)CCCC[C@@H]1SC[C@@H]2NC(=O)N[C@@H]21)C(C)C)C(=O)O [Kir2.1 (inwardly rect. K+ channel)] (Biotin-LHNQASVPLEPRPLRRESEI-OH; C-terminus assumed) | 1 (A450 nm 0-1) | 4 (A450 nm 3-4) |  |  |  |  |  | Classification ([2]; PDZ PSD95, PDZ Domain 1, 2, 3): 2 (A450 nm 1-2); Classification ([4]; PDZ atrophin-1 interacting Protein, PDZ Domain 1): 1 (A450 nm 0-1)
A2AA_HUMAN (modified) (Biotin-HDFRRAFKKILARGDRKRIV; not fully specified) |  |  | 2 (A450 nm 1-2) | 4 (A450 nm 3-4) | 2 (A450 nm 1-2) | 1 (A450 nm 0-1) |  | Classification ([5]; PDZ Domain 4): 1 (A450 nm 0-1); Classification ([4]; PDZ Atrophin-1 Inter. Prot., PDZ Domain 6): 1 (A450 nm 0-1)
PPATPSPRLALPAHHNATRL (Biotin-PPATPSPRLALPAHHNATRL) [Na+/Pi cotransporter 2] |  | 1 (A450 nm 0-1) |  | 1 (A450 nm 0-1) |  |  |  | Classification ([5]; PDZ Domain 8): 1 (A450 nm 0-1)
CC(C)C[C@H](NC(=O)[C@H](CCCNC(=N)N)NC(=O)CNC(=O)CNC(=O)[C@H](CCCNC(=N)N)NC(=O)[C@H](C)NC(=O)[C@@H]1CCCN1C(=O)[C@H](CCCNC(=N)N)NC(=O)CNC(=O)CNC(=O)[C@@H](NC(=O)[C@H](C)NC(=O)CCCC[C@@H]1SC[C@@H]2NC(=O)N[C@@H]21)C(C)C)C(=O)N[C@@H](CCC(N)=O)C(=O)NCC(=O)N[C@@H](CCCNC(=N)N)C(=O)N[C@@H](CCCNC(=N)N)C(=O)N[C@@H](CCC(N)=O)C(=O)N[C@H](C(=O)N[C@@H](CCC(N)=O)C(=O)N[C@H](C(=O)O)C(C)C)[C@@H](C)O [HPV E6 58 (modified)] (Biotin-AVGGRPARGGRLQGRRQTQV-OH; C-terminus assumed) | 5 (A450 nm of 4 more than 2× repeated) | 5 (A450 nm of 4 more than 2× repeated) |  | 1 (A450 nm 0-1) |  |  | 2 (A450 nm 1-2) | Classification ([5]; PDZ Domain 8): 4 (A450 nm 3-4); Classification ([2]; PDZ PSD95, PDZ Domain 1): 5 (A450 nm of 4 more than 2× repeated); Classification ([2]; PDZ PSD95, PDZ Domain 1, 2, 3): 5 (A450 nm of 4 more than 2× repeated); Classification ([2]; PDZ PSD95, PDZ Domain 3): 5 (A450 nm of 4 more than 2× repeated); Classification [4, 11]: 5 (A450 nm of 4 more than 2× repeated); Classification [9]: 4 (A450 nm 3-4)
CC(C)C[C@H](NC(=O)[C@H](CC(=O)O)NC(=O)[C@H](CO)NC(=O)[C@H](CCC(=O)O)NC(=O)CNC(=O)[C@H](Cc1ccc(O)cc1)NC(=O)[C@H](CC(C)C)NC(=O)[C@H](C)NC(=O)[C@H](CO)NC(=O)[C@H](CO)NC(=O)[C@H](Cc1ccccc1)NC(=O)[C@H](C)NC(=O)[C@H](C)NC(=O)[C@H](Cc1ccc(O)cc1)NC(=O)[C@H](CC(=O)O)NC(=O)[C@H](CC(C)C)NC(=O)[C@H](C)NC(=O)CNC(=O)[C@@H]1CCCN1C(=O)[C@@H](NC(=O)CCCC[C@@H]1SC[C@@H]2NC(=O)N[C@@H]21)C(C)C)C(=O)O [a-actinin 2] (Biotin-VPGALDYAAFSSALYGESDL-OH; C-terminus assumed) |  | 1 (A450 nm 0-1) | 1 (A450 nm 0-1) | 1 (A450 nm 0-1) | 2 (A450 nm 1-2) | 5 (A450 nm of 4 more than 2× repeated) | 2 (A450 nm 1-2) | Classification ([8]; PDZ KIAA0147, PDZ Domain 3): 3 (A450 nm 2-3); Classification [9]: 5 (A450 nm of 4 more than 2× repeated)
CC[C@H](C)[C@H](NC(=O)[C@H](CCC(N)=O)NC(=O)CCCC[C@@H]1SC[C@@H]2NC(=O)N[C@@H]21)C(=O)N[C@@H](CO)C(=O)N1CCC[C@H]1C(=O)NCC(=O)NCC(=O)N[C@@H](CC(C)C)C(=O)N[C@@H](CCC(=O)O)C(=O)N1CCC[C@H]1C(=O)N1CCC[C@H]1C(=O)N[C@@H](CO)C(=O)N[C@@H](CCC(=O)O)C(=O)N[C@@H](CCCCN)C(=O)N[C@@H](Cc1c[nH]cn1)C(=O)N[C@@H](Cc1ccccc1)C(=O)N[C@@H](CCCNC(=N)N)C(=O)N[C@@H](CCC(=O)O)C(=O)N[C@H](C(=O)N[C@@H](CCC(=O)O)C(=O)N[C@H](C(=O)O)C(C)C)[C@@H](C)O [Tax] | 5 (A450 nm of 4 more than 2× repeated) | 5 (A450 nm of 4 more than 2× repeated) | 1 (A450 nm 0-1) | 3 (A450 nm 2-3) | 1 (A450 nm 0-1) | 3 (A450 nm 2-3) | 5 (A450 nm of 4 more than 2× repeated) | Classification ([1]; PDZ DLG2, PDZ Domain 1): 2 (A450 nm 1-2); Classification ([8]; PDZ KIAA0147, PDZ Domain 2): 5 (A450 nm of 4 more than 2× repeated); Classification ([8]; PDZ KIAA0147, PDZ Domain 3): 1 (A450 nm 0-1); Classification ([8]; PDZ KIAA0147, PDZ Domain 4): 1 (A450 nm 0-1); Classification ([2]; PDZ PSD95, PDZ Domain 1): 5 (A450 nm of 4 more than 2× repeated); Classification ([2]; PDZ PSD95, PDZ Domain 2): 1 (A450 nm 0-1); Classification ([2]; PDZ PSD95, PDZ Domain 3): 1 (A450 nm 0-1); Classification [4, 11]: 5 (A450 nm of 4 more than 2× repeated); Classification ([4]; PDZ atrophin-1 interacting Protein, PDZ Domain 2): 1 (A450 nm 0-1); Classification ([4]; PDZ atrophin-1 interacting Protein, PDZ Domain 3): 1 (A450 nm 0-1)
CC[C@H](C)[C@H](NC(=O)[C@H](CCC(=O)O)NC(=O)[C@H](CC(N)=O)NC(=O)[C@H](CCCNC(=N)N)NC(=O)[C@H](Cc1ccccc1)NC(=O)[C@H](CC(N)=O)NC(=O)[C@H](CO)NC(=O)[C@H](CC(N)=O)NC(=O)[C@H](CCC(=O)O)NC(=O)[C@H](CO)NC(=O)[C@H](CC(=O)O)NC(=O)[C@H](CO)NC(=O)[C@@H](NC(=O)[C@@H](NC(=O)[C@H](CC(=O)O)NC(=O)[C@H](CCCCN)NC(=O)CCCC[C@@H]1SC[C@@H]2NC(=O)N[C@@H]21)[C@@H](C)CC)[C@@H](C)O)C(=O)N[C@@H](CCC(N)=O)C(=O)N[C@@H](CO)C(=O)N[C@@H](CC(C)C)C(=O)N[C@H](C(=O)O)C(C)C [CD95] (Biotin-KDITSDSENSNFRNEIQSLV-OH; C-terminus assumed) | 1 (A450 nm 0-1) | 1 (A450 nm 0-1) |  |  | 1 (A450 nm 0-1) |  |  | 
